Data: patent US8476036B2, “Nonluminogenic assay for living cells” (Promega Corporation, priority 2004, dated 2013)
Where a name gives a salt, the structure may show the parent alone. Peptide text beside a SMILES is read from it. * marks the point of attachment. AMC = Cc1cc(=O)oc2cc(N*)ccc12

Assays:
Type in all cases: cell-based
HL-60 and/or U937 = test: Protease retention assay inhibitor/adjuncts survey with Gly-Phe-AFC; details: for Comments: extent or nature of the effect on retention activity, in words; for Effect: on protease retention activity, Gly-Phe-AFC at 100 μM final, sonicated, saponin-lysed, or viable cells; for Comments: no inhibition/no effect to (concentration): highest concentration without effect on retention activity
Source text: (§1) Puromycin, E-64, Phenylmethanesulfonyl fluoride (PMSF), Adenosine 5′-triphosphate (ATP), N-(α-Rhamnopyranosyloxyhyrdoxyphosphinyl)-Leu-Trp disodium salt (Phosphoramidon), N-[(2S,3R)-3-Amino-2-hydroxy-4-phenylbutyryl-L-leucine hydrochloride (Bestatin), 1,10-Phenathroline, […], 4-(2-Aminoethyl)benzenesulfonyl fluoride (AEBSF), 1,4-Dithio-DL-threitol (DTT), Edetate disodium dihyrdrate (EDTA), Isovaleryl-L-valyl-L-valyl-[(3S,4S)-4-amino-3-hydroxy-6-methylheptanoyl]-L-alanyl[93S,4S]-4-amino-3-hydroxy-6-methylheptanoicacid (Pepstatin A), sodium chloride, Aprotinin, N-Acetyl-L-leucyl-L-leucyl-L-argininal hemisulfate salt (leupeptin) were all purchased from Sigma. Inhibitors were resuspended in DMSO to varying stock concentrations with a high target concentration of 200 μM or 200 μg/ml in Dulbecco's Phosphate Buffer Saline w/o Mg^++ or Ca^++ (DPBS) for addition to either lysates or viable cell populations. DTT, NaCl, EDTA, and ATP were also diluted in DPBS. All compounds were incubated with compromised or viable cells for a period of at least 30 minutes (most 60 minutes) at 37° C. prior to assessment of activity.
(§2) The protease retention assay inhibitor/adjuncts survey was conducted on sonicated, saponin-lysed, or viable HL-60 and/or U937 using Gly-Phe-AFC at 100 μM final concentration as described previously. The protease release assay inhibitor/adjuncts survey was conducted on sonicated, saponin-lysed, or viable HL-60, SK-MEL-28, and/or U937 using Ala-Ala-Phe-AMC or (Ala-Ala-Phe)2-Rhodamine 110.

HL-60, SK-MEL-28, U937 = test: Protease release assay inhibitor/adjuncts survey with Ala-Ala-Phe-AMC; details: for Comments: extent of the effect on release activity, in words; for Effect: on protease release activity, Ala-Ala-Phe-AMC, sonicated, saponin-lysed, or viable cells; for Comments: no inhibition to (concentration): highest concentration without inhibition of release activity
Source text: as §1, §2

HL-60 or Jurkat [1] = test: Protease retention substrate selectivity, untreated viable cells; set-up: key: None denotes no statistical activity above control population.; (+) to (+++++) denotes the range of activity above control population from modest to robust; (+) to (+++++) denotes the range of activity above control population from modest to robust; (+) to (+++++) denotes the range of activity above control population from modest to robust; (+) to (+++++) denotes the range of activity above control population from modest to robust; (+) to (+++++) denotes the range of activity above control population from modest to robust; details: substrate cleavage activity above control in untreated viable cells; 15-30 minutes at 37° C.
Source text: (§3) Ala-Ala-Phe-AMC was obtained from Promega. Z-Leu-Leu-Val-Tyr-aminoluciferin (LLVY corresponds to SEQ ID NO:18), Z-Leu-Arg-aminoluciferin, Z-Phe-Arg-aminoluciferin, Ala-Ala-Phe-aminoluciferin, (Ala-Ala-Phe)2-R110, and (Gly-Phe)2-R110 were synthesized by Promega Biosciences. Suc-Ala-Ala-Phe-AMC, H-Phe-AMC, H-Tyr-AMC, Glutyl-Ala-Ala-Phe-AMC (EMF corresponds to SEQ ID NO:32), H-Gly-Phe-AMC, Z-Gly-Ala-Met-AMC, Suc-Leu-Leu-Val-Tyr-AMC (LLVY corresponds to SEQ ID NO:18), D-Ala-Leu-Lys-AMC, H-Gly-Ala-AMC, H-Gly-Gly-AMC, Suc-Ala-Ala-Phe-AMC, Z-Arg-Leu-Arg-Gly-Gly-AMC (RLRGG corresponds to SEQ ID NO:29), Z-Leu-Arg-Gly-Gly-AMC (LRGG corresponds to SEQ ID NO:30) and Ac-Ala-Ala-Tyr-AMC were sourced from Bachem. Gly-Phe-AFC, Pro-Phe-Arg-AMC, Gly-Gly-Leu-AMC, and Ser-Tyr-AFC were obtained from Calbiochem. Z-Phe-Arg-AMC and Suc-Arg-Pro-Phe-His-Leu-Leu-Val-Tyr-AMC (RPHLLVY corresponds to SEQ ID NO:31) were purchased from Sigma.
(§4) All substrates were solubilized in DMSO from 10 to 100 mM depending upon inherent solubility. Fluorescent substrates were diluted to 100 μM to 1 mM in 10 mM Hepes, pH 7.5 or matched cell culture medium with 10% serum and added in 1/10th volumes to lysed (freeze fractured, sonicated, or detergent) or untreated viable cells in white-walled, clear bottomed 96-well plates. HL-60 or Jurkat were used in the experimentation interchangeably because of their easily manipulated suspension phenotype. Plates were incubated for 15-30 minutes at 37° C. prior to measuring fluorescence by the CYTOFLUOR® II.
(§5) Luminescent substrates were added to a luciferin detection cake (Promega V859A) resuspended in 2 ml 10 mM Hepes, pH 7.5 to 500 μM. ⅕^th volume of the proluminescent reaction mixes were added to lysed (freeze fractured, sonicated, or detergent) or untreated viable cells in white-walled, clear bottomed 96-well plates. Again, HL-60 or Jurkat were used in the experimentation interchangeably. Plates were incubated at 37° C. in a MeCour' circulating heat block controlled by a Caron 2050W exchange unit. Luminescence was measured between 15 and 30 minutes (signal steady state).
(§6) A broad variety of proteolytic substrates were examined in an effort to characterize potential substrate preferences for protease release or retention in compromised or viable cells (see Table 4). […] Non-blocked substrates (H- and the like) were examined to include the contribution of aminopeptidase activities. From this panel, at least three proteolytic profiles emerged: an aminopeptidase-like activity preferring unblocked Ala-Ala-Phe tripeptide, a proteosomal (chymotrypsin-like) activity measured by release of blocked Leu-Leu-Val-Tyr (SEQ ID NO:18) peptides, and an exceedingly labile activity by Gly-Phe, Gly-Ala, Phe-, Tyr- or Gly-Gly-Leu substrates. The latter activities were only measurable in viable, intact cells. Of further significance is that several fluorophores or proluminescent labels can be used to detect these activities, ultimately allowing for enhanced downstream multiplexing flexibility.

HL-60 or Jurkat [2] = test: Protease release substrate selectivity, lysed (freeze fractured, sonicated, or detergent) cells; set-up: key: None denotes no statistical activity above control population.; (+) to (+++++) denotes the range of activity above control population from modest to robust; (+) to (+++++) denotes the range of activity above control population from modest to robust; (+) to (+++++) denotes the range of activity above control population from modest to robust; (+) to (+++++) denotes the range of activity above control population from modest to robust; (+) to (+++++) denotes the range of activity above control population from modest to robust; details: substrate cleavage activity above control in lysed cells; 15-30 minutes at 37° C.
Source text: as §3, §4, §5, §6

Compound	Protease retention activity profile in the presence of inhibitors or adjuncts (HL-60 and/or U937)	Comments (HL-60 and/or U937)	Effect (HL-60 and/or U937)	Comments (HL-60, SK-MEL-28, U937)	Effect (HL-60, SK-MEL-28, U937)	Comments: no inhibition/no effect to (concentration) (HL-60 and/or U937)	Comments: no inhibition to (concentration) (HL-60, SK-MEL-28, U937)	Retention (HL-60 or Jurkat [1])	Release (HL-60 or Jurkat [2])
O[C@@H](CS)[C@@H](O)CS (racemic) [DTT, 1,4-Dithio-DL-threitol]	independent	Very slightly	Augments	Modest	Augments				
c1cnc2c(c1)ccc1cccnc12 [1,10 Phenanthroline, 1,10-Phenathroline]			No inhib		No inhib	to 100 uM	to 100 uM		
O=c1oc(Cl)c(Cl)c2ccccc12 [3,4 Diisocoumarin, 3,4-diisocoumarin]		Kills cells	Inhibition(?)	Strong	Inhibition				
CC(N)C(=O)NC(C)C(=O)NC(Cc1ccccc1)C(=O)Nc1ccc2c(c1)Oc1cc(NC(=O)C(Cc3ccccc3)NC(=O)C(C)NC(=O)C(C)N)ccc1C21OC(=O)c2ccccc21 (stereo not drawn) [(Ala-Ala-Phe) 2 R110, (Ala-Ala-Phe)2-R110]								None	+++++
NCCc1ccc(S(=O)(=O)F)cc1 [AEBSF, 4-(2-Aminoethyl)benzenesulfonyl fluoride]				Strong	Inhibition				
Nc1ncnc2c1ncn2[C@@H]1O[C@H](COP(=O)(O)OP(=O)(O)OP(=O)(O)O)[C@@H](O)[C@H]1O [ATP, Adenosine 5′-triphosphate]	independent		No effect			to 100 uM			
CC(=O)NC(C)C(=O)NC(C)C(=O)NC(Cc1ccc(O)cc1)C(=O)Nc1ccc2c(C)cc(=O)oc2c1 (stereo not drawn) [Ac-Ala-Ala-Tyr-AMC] (Ac-Ala-Ala-Tyr-{AMC}; configuration not given here)								None	None
Cc1cc(=O)oc2cc(NC(=O)C(Cc3ccccc3)NC(=O)C(C)NC(=O)C(C)N)ccc12 (stereo not drawn) [Ala-Ala-Phe-AMC] (H-Ala-Ala-Phe-{AMC}; configuration not given here)								None	+++++
CC(C)C[C@H](NC(=O)[C@@H](O)[C@H](N)Cc1ccccc1)C(=O)O [Bestatin, N-[(2S,3R)-3-Amino-2-hydroxy-4-phenylbutyryl-L-leucine hydrochloride]	sensitivities	Strong	Inhibition		No inhib		to 10 uM		
CC(C)C[C@H](NC(=O)[C@H]1O[C@@H]1C(=O)O)C(=O)NCCCCN=C(N)N [E-64]			No inhib		No inhib	to 100 uM	to 100 uM		
